Legend:
Assay type in all cases: binding
[1] = test system: double-stranded oligo(dA)-oligo(dT); experiment: Affinity selection and amplification of salicylaldimine library on double-stranded DNA affinity column; conditions: for retention on the affinity column in the presence of zinc: 0.5 mM each of 8-13, with 26 MM ZnCl2, normalized to values in the absence of zinc, two-hour incubation
Description: A serious potential problem with the selection and amplification of a single compound from an equilibrating mixture of complexes is that of identifying the desired high-affinity species. First, if the selection is not complete for a single compound, the separation and identification of a potentially large number of complexes presents a significant analytical challenge. Furthermore, since reequilibration of complexes can occur once the affinity resin is removed, it might be expected that binding information would be lost. […] Application of this technique to the eluent from an affinity column would permit deconvolution of the library to provide information about the identity of binding complexes.
With a series of monomers, verification of self-assembly in aqueous solutions, and a separation method in hand, the experimental tools were in place to conduct an affinity selection and amplification experiment. A standard solution of 0.5 mM 8-13 (total concentration 3 mM in “monomer”) was prepared in 10 mM Tris•HCl, 100 mM KCl, 1% DMSO, pH 7.5. To determine the effect of zinc on the observed selection, samples were prepared either with or without 26 MM ZnCl2. Samples were allowed to incubate for one hour to allow an equilibrium mixture of complexes to form, and the latter were then individually added to affinity columns prepared from 30 mg of commercial poly(dT)-cellulose resin (Pharmacia Biotech) preincubated with one A260 unit (approximately 7 nmol) of oligo (dA)12-18(Oligo (dA)12-18 as obtained from Pharmacia Biotech is a mixture of homopolymeric, single-stranded DNA of length 12 to 18) in 10 mM Tris•HCl, 100 mM KCl, pH 7.5 for formation of double-stranded DNA (giving an approximate, average complex:base pair ratio of 85:1). Following a two-hour incubation of the libraries on the resin, solutions were eluted, lyophilized, and derivatized as described above.

[2] = Control selection of salicylaldimine library on cellulose alone; conditions: conditions identical to double-stranded experiment
[3] = test system: single-stranded oligo(dT)-cellulose; experiment: Control selection of salicylaldimine library on single-stranded oligo(dT)-cellulose; conditions: conditions identical to double-stranded experiment
oligo (dA•dT) = experiment: Affinity selection of amine/salicylaldehyde/Zn2+ library on DNA-cellulose resin, HPLC of derivatized amines in initial elution; conditions: 82 μM salicylaldehyde, 164 μM each amine
Method: For each sample, 15 mg oligo(dT) cellulose was weighed into a 2 ml Bio-Rad BIOSPIN™ polypropylene chromatography column equipped with a glass frit. The resin was then taken up in 750 μl HEPES buffer (10 mM HEPES, 100 mM KC1, pH 6.8). 0.5 A(260) units of oligo(dA) were then added in 50 μl H2O and allowed to incubate on the resin for one hour at ambient temperature prior to the addition of library samples. During this pre-incubation period, as well as throughout the remainder of the experiments, gentle agitation was provided by rotating the samples on a Barnstead-Thermolyne LAB QUAKE™ rotary shaker. In a similar manner, 15 mg of unfunctionalized cellulose for each control experiment was allowed to soak in 800 μl HEPES buffer at ambient temperature for one hour prior to the addition of library samples.
As one skilled in the are will note, the complexes shown above represent only a subset of the complexes that would be present in this equilibrium. Samples were prepared in triplicate from stock solutions as indicated in Table 1 to provide a total volume of 450 μl. An identical set of samples was prepared for control experiments. In each case, libraries were allowed to incubate at ambient temperature for one hour prior to addition to the DNA-cellulose or control cellulose resin. Additional sets of library samples were prepared according to lines C and D of Table 1 for control experiments conducted in the absence of DNA-cellulose or unfunctionalized cellulose resin.
Following the pre-incubation period, each sample was added to either a DNA-cellulose or unfunctionalized cellulose column as appropriate. These samples were then allowed to incubate on the resin with gentle agitation at ambient temperature for six hours. Solutions were then eluted from the resin, frozen, and lyophilized prior to derivatization and analysis as described below. […]
In order to separate and identify as many constituents of each sample as possible, a minimum of two HPLC elutions were performed for each sample. […] Elutions were monitored at 230 nm. […]

[4] = 41 μM Zn2+, normalized to zinc-free samples

## Oc1ccccc1/C=N/CCc1ccccn1 [monomer 12]
[1]; 0.5 mM each of 8-13, with or without 26 MM ZnCl2
  derivatized monomer eluted in the presence of zinc versus absence of zinc: twice as much

## Oc1ccccc1/C=N/CC1CCCO1 (stereo not drawn) [monomer 11]
[1]
  retention on the affinity column in the presence of zinc: most strongly retained
[2]
  retention on cellulose, presence versus absence of zinc: more strongly retained

## CN1CCCC1CC/N=C/c1ccccc1O (stereo not drawn) [monomer 9]
[1]
  retention on the affinity column in the presence of zinc: most strongly retained
[2]
  retention on cellulose, presence versus absence of zinc: to the same extent
[3]
  retention on oligo(dT)-cellulose, presence versus absence of zinc: to the same extent

## CN1CCCC1CCN (stereo not drawn) [Amine 4, N-methyl 2-aminoethyl pyrrolidine]
Oligo (dA•dT); 82 μM Zn2+
  amount retained on the column at higher Zn2+ versus 41 μM Zn2+: significant reduction in the amount of 4 retained
Oligo (dA•dT); [4]
  reduction in the amount of derivatized amine in initial elution (in words): significant reduction

## NCCCO [Amine 6, 3-hydroxypropylamine]
Oligo (dA•dT); [4]
  reduction in the amount of derivatized amine in initial elution: > 50%
